According to US11667637B2, “Fused imidazo-piperidine JAK inhibitors” (THERAVANCE BIOPHARMA R&D IP, LLC, priority 2017, dated 2023):

How the values were obtained:
[1] = tested on: IL-6 stimulated STAT3 phosphorylation in CD3+ T cells; assay: Inhibition of IL-6 stimulated pSTAT3 in CD3+ T cells; format: cell-based, human; conditions: statement in words
From the text: Assay 10: Cellular JAK Potency Assay: Inhibition of IL-6 Stimulated pSTAT3 in CD3+ T Cells
A protocol analogous to that of Assay 9 was used to determine the potency of the test compound for inhibition of interleukin-6 (IL-6) stimulated STAT3 phosphorylation. An Alexa Fluor 647 conjugated anti-pSTAT3 antibody (pY705, Clone 4/P, BD Biosciences) was used to detect STAT3 phosphorylation.

[2] = tested on: IL-5 mediated survival of human eosinophils; assay: IL-5 mediated eosinophil survival assay; format: cell-based; conditions: statement in words
Procedure: Assay 6: IL-5 Mediated Eosinophil Survival Assay
The potency of the test compound for IL-5 mediated eosinophil survival was measured in human eosinophils isolated from human whole blood (AllCells). Because IL-5 signals through JAK, this assay provides a measure of JAK cellular potency.
Human eosinophils were isolated from fresh human whole blood (AllCells) of healthy donors. Blood was mixed with 4.5% Dextran (Sigma-Aldrich) in a 0.9% sodium chloride solution (Sigma-Aldrich). Red blood cells were left to sediment for 35 minutes. The leukocyte rich upper layer was removed and layered over Ficoll-Paque (GE Healthcare) and centrifuged at 600 g for 30 minutes. The plasma and mononuclear cell layers were removed before the granulocyte layer was lysed with water to remove any contaminating red blood cells. […] Purity was analyzed using a LSRII flow cytometer (BD Biosciences). […]
After cytokine stimulation, cells were centrifuged at 300 g for 5 min and washed twice with cold DPBS (Life Technologies). To access viability and apoptosis, cells were incubated with Propidium Iodide (Thermo Fisher Scientific) and APC Annexin V (BD Biosciences) and analyzed using a LSRII flow cytometer (BD Biosciences). IC50 values were determined from analysis of the viability curves of percent cell viability vs compound concentration. Data are expressed as pIC50 (negative decadic logarithm IC50) values.

SMILES	inhibition of IL-6 signaling [1]	inhibition of IL-5 mediated human eosinophil survival [2]
CCc1cc(O)c(F)cc1-c1ccc2c(-c3nc4c([nH]3)CN(C(C)C)[C@H](C(=O)N3CC[C@H](N(C)C)C3)C4)n[nH]c2c1 [Example 3]	inhibit IL-6 signaling	–
CCCN1Cc2[nH]c(-c3n[nH]c4cc(-c5cc(F)c(O)cc5CC)ccc34)nc2C[C@H]1C(=O)N1C[C@@H]2C[C@H]1CN2C [Example 1, ((S)-2-(6-(2-ethyl-5-fluoro-4-hydroxyphenyl)-1H-indazol-3-yl)-5-propyl-4,5,6,7-tetrahydro-3H-imidazo[4,5-c]pyridin-6-yl)((1S,4S)-5-methyl-2,5-diazabicyclo-[2.2.1]heptan-2-yl)methanone]	inhibit IL-6 signaling	potently inhibit
